# Source: patent US9695155B2, “Herbicidal substituted pyrimidinyloxy benzene compounds” (E. I. DU PONT DE NEMOURS AND COMPANY, priority 2013, dated 2017)
# Columns and labels:
# [1] = system: velvetleaf; experiment: Test A preemergence; type: in vivo, Abutilon theophrasti; conditions: for Velvetleaf plant response rating (0 to 100 scale): 125 g ai/ha; for Velvetleaf plant response rating: 500 g ai/ha, 0 to 100 scale where 0 is no effect and 100 is complete control
# Outline: (§1)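 Visual 0–100 rating (100 = complete control) taken about 10 d post-treatment relative to untreated checks. Preemergence: directed soil spray on sown loam/sand pots. Postemergence: seedlings 2–10 cm, 1–2 leaf. Non-phytotoxic solvent formulation with surfactant.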
# [2] = system: giant foxtail; experiment: Test A postemergence; type: in vivo, Setaria faberii
# Outline: as §1
# [3] = system: pigweed; experiment: Test A postemergence; type: in vivo, Amaranthus retroflexus
# Outline: as §1
# [4] = system: corn; experiment: Test A postemergence; type: in vivo, Zea mays
# Outline: as §1
# [5] = system: wheat; experiment: Test A preemergence; type: in vivo, Triticum aestivum; conditions: for Wheat plant response rating (0 to 100 scale): 125 g ai/ha; for Wheat plant response rating: 500 g ai/ha, 0 to 100 scale where 0 is no effect and 100 is complete control
# Outline: as §1
# [6] = system: barnyardgrass; experiment: Test A preemergence; type: in vivo, Echinochloa crus-galli; conditions: for Barnyardgrass plant response rating (0 to 100 scale, 0 is no effect, 100 is complete control): 125 g ai/ha; for Barnyardgrass plant response rating: 500 g ai/ha, 0 to 100 scale where 0 is no effect and 100 is complete control
# Outline: as §1
# [7] = system: pigweed; experiment: Test A preemergence; type: in vivo, Amaranthus retroflexus; conditions: for Pigweed plant response rating (0 to 100 scale): 125 g ai/ha; for Pigweed plant response rating: 500 g ai/ha, 0 to 100 scale where 0 is no effect and 100 is complete control
# Outline: as §1
# [8] = system: sedge, umbrella; experiment: Test B flooded paddy test; type: in vivo, Cyperus difformis; conditions: Flood, 250 g ai/ha; 0 to 100 scale where 0 is no effect and 100 is complete control
# Outline: (§2)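 Seedlings are raised to two leaves, flooded to a depth of 3 cm and dosed by adding the compound to the floodwater. Water level is kept constant, and plants are scored visually versus controls 13–15 days later (0 = no effect, 100 = complete control).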
# [9] = system: Heteranthera limosa; experiment: Test B flooded paddy test; type: in vivo; conditions: Flood, 250 g ai/ha; 0 to 100 scale where 0 is no effect and 100 is complete control
# Outline: as §2
# [10] = system: velvetleaf; experiment: Test A postemergence; type: in vivo, Abutilon theophrasti
# Outline: as §1
# [11] = system: corn; experiment: Test A preemergence; type: in vivo, Zea mays; conditions: for Corn plant response rating (0 to 100 scale): 125 g ai/ha; for Corn plant response rating: 500 g ai/ha, 0 to 100 scale where 0 is no effect and 100 is complete control
# Outline: as §1
# [12] = system: giant foxtail; experiment: Test A preemergence; type: in vivo, Setaria faberii; conditions: for Foxtail, Giant plant response rating (0 to 100 scale): 125 g ai/ha; for Foxtail, Giant plant response rating: 500 g ai/ha, 0 to 100 scale where 0 is no effect and 100 is complete control
# Outline: as §1
# [13] = system: large (Lg) crabgrass; experiment: Test A preemergence; type: in vivo, Digitaria sanguinalis; conditions: for Crabgrass, Large plant response rating (0 to 100 scale): 125 g ai/ha; for Crabgrass, Large plant response rating: 500 g ai/ha, 0 to 100 scale where 0 is no effect and 100 is complete control
# Outline: as §1
# [14] = system: large (Lg) crabgrass; experiment: Test A postemergence; type: in vivo, Digitaria sanguinalis
# Outline: as §1
# [15] = system: morningglory; experiment: Test A postemergence; type: in vivo, Ipomoea spp.
# Outline: as §1
# [16] = system: rice; experiment: Test B flooded paddy test; type: in vivo, Oryza sativa; conditions: Flood, 250 g ai/ha; 0 to 100 scale where 0 is no effect and 100 is complete control
# Outline: as §2
# [17] = system: wheat; experiment: Test A postemergence; type: in vivo, Triticum aestivum
# Outline: as §1
# [18] = system: morningglory; experiment: Test A preemergence; type: in vivo, Ipomoea spp.; conditions: for Morningglory plant response rating (0 to 100 scale): 125 g ai/ha; for Morningglory plant response rating: 500 g ai/ha, 0 to 100 scale where 0 is no effect and 100 is complete control
# Outline: as §1
# [19] = system: barnyardgrass; experiment: Test A postemergence; type: in vivo, Echinochloa crus-galli
# Outline: as §1
# [20] = system: barnyardgrass; experiment: Test B flooded paddy test; type: in vivo, Echinochloa crus-galli; conditions: Flood, 250 g ai/ha; 0 to 100 scale where 0 is no effect and 100 is complete control
# Outline: as §2
# [21] = 125 g ai/ha, 0 to 100 scale, 0 no effect, 100 complete control
# [22] = 500 g ai/ha, 0 to 100 scale where 0 is no effect and 100 is complete control
Structure (SMILES),Velvetleaf plant response rating (0 to 100 scale) [1],Velvetleaf plant response rating [1],"Plant response rating, Foxtail, Giant [2, 21]","Plant response rating, Foxtail, Giant [2, 22]","Plant response rating, Pigweed [3, 21]","Plant response rating, Pigweed [3, 22]","Plant response rating, Corn [4, 21]","Plant response rating, Corn [4, 22]",Wheat plant response rating (0 to 100 scale) [5],Wheat plant response rating [5],"Barnyardgrass plant response rating (0 to 100 scale, 0 is no effect, 100 is complete control) [6]",Barnyardgrass plant response rating [6],Pigweed plant response rating (0 to 100 scale) [7],Pigweed plant response rating [7],"Plant response rating, Sedge, Umbrella [8]","Plant response rating, Ducksalad [9]","Plant response rating, Velvetleaf [10, 21]","Plant response rating, Velvetleaf [10, 22]",Corn plant response rating (0 to 100 scale) [11],Corn plant response rating [11],further results
Brc1cnn(-c2ccccc2Oc2ncccn2)c1 [Compound 275],20,60,0,30,80,90,0,0,0,0,0,0,80,90,0,30,60,90,0,0,"Foxtail, Giant plant response rating (0 to 100 scale) [12]: 0; Foxtail, Giant plant response rating [12]: 70; Crabgrass, Large plant response rating (0 to 100 scale) [13]: 0; Crabgrass, Large plant response rating [13]: 70; Plant response rating, Crabgrass, Large [14, 21]: 0; Plant response rating, Crabgrass, Large [14, 22]: 20; Plant response rating, Morningglory [15, 21]: 10; Plant response rating, Morningglory [15, 22]: 50; Plant response rating, Rice [16]: 15; Plant response rating, Wheat [17, 21]: 0; Plant response rating, Wheat [17, 22]: 0; Morningglory plant response rating (0 to 100 scale) [18]: 0; Morningglory plant response rating [18]: 0; Plant response rating, Barnyardgrass [19, 21]: 0; Plant response rating, Barnyardgrass [19, 22]: 0; Plant response rating, Barnyardgrass [20]: 15"
CNN=Cc1cccc(Oc2ncc(Cl)cn2)c1-n1cc(Br)cn1 [Compound 289],0,10,0,30,100,100,0,10,0,0,0,20,20,100,0,0,10,40,0,0,"Foxtail, Giant plant response rating (0 to 100 scale) [12]: 0; Foxtail, Giant plant response rating [12]: 10; Crabgrass, Large plant response rating (0 to 100 scale) [13]: 0; Crabgrass, Large plant response rating [13]: 10; Plant response rating, Crabgrass, Large [14, 21]: 0; Plant response rating, Crabgrass, Large [14, 22]: 20; Plant response rating, Morningglory [15, 21]: 20; Plant response rating, Morningglory [15, 22]: 50; Plant response rating, Rice [16]: 0; Plant response rating, Wheat [17, 21]: 0; Plant response rating, Wheat [17, 22]: 0; Morningglory plant response rating (0 to 100 scale) [18]: 0; Morningglory plant response rating [18]: 0; Plant response rating, Barnyardgrass [19, 21]: 0; Plant response rating, Barnyardgrass [19, 22]: 20; Plant response rating, Barnyardgrass [20]: 0"
Clc1cnc(Oc2cccc(-c3cccnc3)c2-n2cc(Br)cn2)nc1 [Compound 290],0,0,0,10,10,20,0,10,0,0,0,0,0,0,0,0,10,30,0,0,"Foxtail, Giant plant response rating (0 to 100 scale) [12]: 0; Foxtail, Giant plant response rating [12]: 10; Crabgrass, Large plant response rating (0 to 100 scale) [13]: 0; Crabgrass, Large plant response rating [13]: 10; Plant response rating, Crabgrass, Large [14, 21]: 0; Plant response rating, Crabgrass, Large [14, 22]: 10; Plant response rating, Morningglory [15, 21]: 0; Plant response rating, Morningglory [15, 22]: 10; Plant response rating, Rice [16]: 0; Plant response rating, Wheat [17, 21]: 0; Plant response rating, Wheat [17, 22]: 0; Morningglory plant response rating (0 to 100 scale) [18]: 0; Morningglory plant response rating [18]: 0; Plant response rating, Barnyardgrass [19, 21]: 0; Plant response rating, Barnyardgrass [19, 22]: 0; Plant response rating, Barnyardgrass [20]: 0"
CNN=Cc1cccc(Oc2ncc(Cl)cn2)c1-n1cc(Cl)cn1 [Compound 296],0,10,0,0,30,100,0,10,0,0,0,10,0,90,0,0,30,30,0,0,"Foxtail, Giant plant response rating (0 to 100 scale) [12]: 0; Foxtail, Giant plant response rating [12]: 10; Crabgrass, Large plant response rating (0 to 100 scale) [13]: 0; Crabgrass, Large plant response rating [13]: 60; Plant response rating, Crabgrass, Large [14, 21]: 0; Plant response rating, Crabgrass, Large [14, 22]: 0; Plant response rating, Morningglory [15, 21]: 20; Plant response rating, Morningglory [15, 22]: 20; Plant response rating, Rice [16]: 0; Plant response rating, Wheat [17, 21]: 0; Plant response rating, Wheat [17, 22]: 20; Morningglory plant response rating (0 to 100 scale) [18]: 0; Morningglory plant response rating [18]: 0; Plant response rating, Barnyardgrass [19, 21]: 0; Plant response rating, Barnyardgrass [19, 22]: 0; Plant response rating, Barnyardgrass [20]: 0"
